Results on 21 compounds are retold here after PubChem BioAssay AID1259408 (Genetic Toxicology Data Bank (GENE-TOX), 2018).

This series concerns GENE-TOX genotoxicity assays, various organisms and cells. In words: GENE-TOX mutagenicity studies.
[1] abbreviates: Species/Cell Type: Human diploid fibroblasts, Assay Type: Unscheduled DNA synthesis (UDS) in vitro, DNA effects, Assay Code: UDH-, Evaluation Type: Evaluation A (Pre-1980).
The mark [2] stands for this setting: Species/Cell Type: Saccharomyces cerevisiae, Assay Type: Mitotic recombination or gene conversion, Assay Code: YEH-, Evaluation Type: Evaluation A (Pre-1980).
Setting [3] is: Species/Cell Type: Salmonella typhimurium (one or more of the five standard strains: TA98, TA100, TA1535, TA1537, and TA1538), Assay Type: Histidine reverse gene mutation, Ames assay, Assay Code: SALT, Evaluation Type: Evaluation A (Pre-1980).
The mark [4] stands for this setting: Species/Cell Type: Salmonella typhimurium (one or more of the five standard strains: TA98, TA100, TA1535, TA1537, and TA1538), Assay Type: Histidine reverse gene mutation, Ames assay, Assay Code: SAL+, Evaluation Type: Evaluation A (Pre-1980).
[5] abbreviates: Species/Cell Type: Saccharomyces cerevisiae, Assay Type: Mitotic recombination or gene conversion, Assay Code: YEC+, Evaluation Type: Evaluation A (Pre-1980).
Setting [6] is: Species/Cell Type: Saccharomyces cerevisiae, Assay Type: Mitotic recombination or gene conversion, Assay Code: YEH+, Evaluation Type: Evaluation A (Pre-1980).
Setting [7] is: Species/Cell Type: Salmonella typhimurium (one or more of the five standard strains: TA98, TA100, TA1535, TA1537, and TA1538), Assay Type: Histidine reverse gene mutation, Ames assay, Assay Code: SAL-, Evaluation Type: Evaluation A (Pre-1980).
Where [8] appears, read: Species/Cell Type: Drosophila melanogaster, Assay Type: Sex-linked recessive lethal gene mutation, Assay Code: SRLT, Evaluation Type: Evaluation A (Pre-1980).
Setting [9] is: Species/Cell Type: Bacillus subtilis (H17 vs M45), Assay Type: Rec-assay, spot test, DNA effects (bacterial DNA repair), Assay Code: REWT, Evaluation Type: Evaluation A (Pre-1980).
Where [10] appears, read: Species/Cell Type: Drosophila melanogaster, Assay Type: Aneuploidy, sex chromosome gain, chromosome aberrations, Assay Code: DAGT, Evaluation Type: Evaluation A (Pre-1980).
[11] abbreviates: Species/Cell Type: Drosophila melanogaster, Assay Type: Sex-linked recessive lethal gene mutation, Assay Code: SRL+, Evaluation Type: Evaluation A (Pre-1980).
[12] abbreviates: Species/Cell Type: Escherichia coli polA (W3119 vs P3478), Assay Type: Rec-assay, DNA effects (bacterial DNA repair), Assay Code: RE1+, Evaluation Type: Evaluation A (Pre-1980).

Activity calls are given as the source filed them. How the calls were made is not given here.

For `O=C(CCCN1CCC(O)(c2ccc(Cl)cc2)CC1)c1ccc(F)cc1`, the mutagenic call reads like this: (Species/Cell Type: Allium cepa, Assay Type: Chromosome aberrations, Assay Code: ALC+D, Dose Response: With dose response, Evaluation Type: Evaluation A (Pre-1980)) “active; positive”; (Species/Cell Type: Human, Assay Type: Sister-chromatid exchange (SCE) in vitro, Assay Code: SC1T, Evaluation Type: Evaluation B (Post-1980)) “no conclusion”.

Regarding `c1ccc(-c2ccccc2)cc1`, the mutagenic call by setting is: under setting [1], “inactive; negative”; (Species/Cell Type: Nonhuman, Assay Type: Sister-chromatid exchange (SCE) in vitro, Assay Code: SC2+D, Dose Response: With dose response, Evaluation Type: Evaluation A (Pre-1980)) “active; positive”; (Species/Cell Type: Rat primary hepatocytes, Assay Type: Unscheduled DNA synthesis (UDS) in vitro, DNA effects, Assay Code: UDP-, Evaluation Type: Evaluation A (Pre-1980)) “inactive; negative”; under setting [2], “inactive; negative”.

For `COc1ccc(-c2c(-c3ccc(OC)cc3)c3ccc(OC)cc3c3cc(OC)ccc23)cc1`, the mutagenic call under setting [3] is “no conclusion”.

With `BrCc1c2ccccc2cc2ccccc12`, the mutagenic call under setting [4] is “active; positive”.

With `C/C=C/c1ccccc1`, the mutagenic call by setting is: (Species/Cell Type: Human lymphocytes, Assay Type: Sister-chromatid exchange (SCE) in vitro, Assay Code: SCL+D, Dose Response: With dose response, Evaluation Type: Evaluation B (Post-1980)) “active; positive”; (Species/Cell Type: Human, Assay Type: Sister-chromatid exchange (SCE) in vitro, Assay Code: SC1+D, Dose Response: With dose response, Evaluation Type: Evaluation B (Post-1980)) “active; positive”.

As to `ClC(Cl)(Cl)Cl`, the mutagenic call runs as follows: (Species/Cell Type: Mouse, Sex: Male, Assay Type: Sperm morphology, Assay Code: SPI-, Evaluation Type: Evaluation A (Pre-1980)) “inactive; negative”; under setting [5], “active; positive”; under setting [6], “active; positive”; (Species/Cell Type: Saccharomyces cerevisiae, Assay Type: Reverse gene mutation, Assay Code: YER+, Evaluation Type: Evaluation A (Pre-1980)) “active; positive”; under setting [7], “inactive; negative”. Besides, under “Species/Cell Type: Nonhuman, Assay Type: In vivo carcinogenicity studies, Assay Code: CCG+, Evaluation Type: Evaluation A (Pre-1980)”, the call was “active; positive”.

`Nc1ccc2[nH]ncc2c1`: the mutagenic call (Species/Cell Type: Rat, Sex: Male, Assay Type: Sperm morphology, Assay Code: SPA+, Evaluation Type: Evaluation A (Pre-1980)) was “active; positive”.

For `C#C[C@]1(OC(C)=O)CC[C@H]2[C@@H]3CCC4=CC(=O)CC[C@@H]4[C@H]3CC[C@@]21C` (tested in a mixture with another compound), the mutagenic call (Species/Cell Type: Rodents, Sex: Male, Assay Type: Dominant lethal test, Assay Code: DLT-, Evaluation Type: Evaluation A (Pre-1980)) was “inactive; negative”.

Regarding `CCCCc1nc(Cl)c(CO)n1Cc1ccc(-c2ccccc2-c2nnn[nH]2)cc1`, the mutagenic call reads like this: under setting [8], “no conclusion”; (Species/Cell Type: Drosophila melanogaster, Sex: Male, Assay Type: Heritable translocation test, chromosome aberrations, Assay Code: DHTT, Evaluation Type: Evaluation A (Pre-1980)) “no conclusion”.

As to `CNC(=O)Oc1cccc2c1OC(C)(C)C2`, the mutagenic call reads like this: under setting [9], “no conclusion”; (Species/Cell Type: Drosophila melanogaster, Assay Type: Sex-linked recessive lethal gene mutation, Assay Code: SRL-, Evaluation Type: Evaluation A (Pre-1980)) “inactive; negative”; (Species/Cell Type: Escherichia coli WP2 UVRA, Assay Type: Tryptophan reverse gene mutation, Assay Code: WPU-*, Activation: With metabolic activation, Evaluation Type: Evaluation A (Pre-1980)) “inactive; negative”; (Species/Cell Type: Escherichia coli polA (W3119 vs P3478), Assay Type: Rec-assay, DNA effects (bacterial DNA repair), Assay Code: RE1T, Evaluation Type: Evaluation A (Pre-1980)) “no conclusion”; (Species/Cell Type: Hordeum vulgare (barley), Assay Type: Chromosome aberrations, Assay Code: HOC+D, Dose Response: With dose response, Evaluation Type: Evaluation A (Pre-1980)) “active; positive”; under setting [1], “inactive; negative”. In addition, the mutagenic call by setting is: under setting [2], “inactive; negative”; under setting [7], “inactive; negative”.

Consider `O=C(NO)NO`, for which the mutagenic call runs as follows: under setting [10], “no conclusion”; (Species/Cell Type: Drosophila melanogaster, Assay Type: Aneuploidy, whole sex chromosome loss, chromosome aberrations, Assay Code: DAC-M, Evaluation Type: Evaluation A (Pre-1980)) “inactive; negative”; under setting [8], “no conclusion”.

Turning to `CCOC(=O)N(CC)N=O`, the mutagenic call is “active; positive” (Species/Cell Type: Arabidopsis species, Assay Type: Gene mutation, Assay Code: ARM+D, Dose Response: With dose response, Evaluation Type: Evaluation A (Pre-1980)); “active; positive” (Species/Cell Type: Drosophila melanogaster, Assay Type: Aneuploidy, partial sex chromosome loss, chromosome aberrations, Assay Code: DAP+MDAC+M, Dose Response: With dose response, Evaluation Type: Evaluation A (Pre-1980)); “no conclusion” under setting [10]; “active; positive” under setting [11]; “active; positive” under setting [12]; “active; positive” (Species/Cell Type: Hordeum vulgare (barley), Assay Type: Gene mutation, Assay Code: HOM+D, Dose Response: With dose response, Evaluation Type: Evaluation A (Pre-1980)). The mutagenic call runs as follows: (Species/Cell Type: Neurospora crassa, Assay Type: Reverse gene mutation, Assay Code: NER+, Evaluation Type: Evaluation A (Pre-1980)) “active; positive”; under setting [5], “active; positive”; under setting [4], “active; positive”; (Species/Cell Type: Schizosaccharomyces pombe, Assay Type: Reverse gene mutation, Assay Code: YEZ+, Evaluation Type: Evaluation A (Pre-1980)) “active; positive”.

Take `O=C1c2ccccc2C(=O)N1SC(Cl)(Cl)Cl`: the mutagenic call runs as follows: under setting [9], “no conclusion”; (Species/Cell Type: Chinese hamster ovary (CHO) cells, Assay Type: Forward gene mutation at the HPRT locus, Assay Code: CHO+, Evaluation Type: Evaluation B (Post-1980)) “active; positive”; under setting [11], “active; positive”; (Species/Cell Type: Escherichia coli WP2, Assay Type: Tryptophan reverse gene mutation, Assay Code: WP2+, Evaluation Type: Evaluation A (Pre-1980)) “active; positive”; (Species/Cell Type: Escherichia coli WP2 UVRA, Assay Type: Tryptophan reverse gene mutation, Assay Code: WPU+/-*, Activation: With metabolic activation, Evaluation Type: Evaluation A (Pre-1980)) “inactive; positive without activation, negative with activation”; under setting [12], “active; positive”. Besides, the mutagenic call reads like this: under setting [1], “inactive; negative”; (Species/Cell Type: Rodents, Sex: Male, Assay Type: Dominant lethal test, Assay Code: DLTT, Evaluation Type: Evaluation A (Pre-1980)) “no conclusion”; under setting [5], “active; positive”; under setting [6], “active; positive”; under setting [4], “active; positive”; (Species/Cell Type: Salmonella typhimurium, Assay Type: Forward and reverse gene mutation, host-mediated assay, Assay Code: HMA-, Evaluation Type: Evaluation A (Pre-1980)) “inactive; negative”.

On to `CC(=O)NNC(=O)c1ccncc1`, for which the mutagenic call (Species/Cell Type: Salmonella typhimurium, Assay Type: Forward and reverse gene mutation, host-mediated assay, Assay Code: HMAT, Evaluation Type: Evaluation A (Pre-1980)) was “no conclusion”.

As to `CCN(CC)CC(O)CNc1c2ccc(Cl)cc2nc2ccc(OC)cc12` (centres undefined), under “Species/Cell Type: Mammalian polychromatic erythrocytes, Assay Type: Micronucleus test, chromosome aberrations, Assay Code: MNT+U, Dose Response: Unconfirmed positive response, Evaluation Type: Evaluation A (Pre-1980)”, the mutagenic call is “active; positive”.

On to `Oc1ccc(Cl)c2cccnc12`, for which the mutagenic call under setting [3] is on record as “no conclusion”.

`CCOC(=O)C1C(C=C(C)C)C1(C)C` (centres undefined): the mutagenic call is “inactive; negative” under setting [1] and “active; positive” under setting [6].

`Cc1nc(N)cc2c1[nH]c1ccccc12`: the mutagenic call by setting is: (Species/Cell Type: Human lymphocytes, Assay Type: Sister-chromatid exchange (SCE) in vitro, Assay Code: SCL+, Evaluation Type: Evaluation B (Post-1980)) “active; positive”; (Species/Cell Type: Human, Assay Type: Sister-chromatid exchange (SCE) in vitro, Assay Code: SC1+, Evaluation Type: Evaluation B (Post-1980)) “active; positive”; (Species/Cell Type: Nonhuman, Assay Type: Sister-chromatid exchange (SCE) in vitro, Assay Code: SC2+D, Dose Response: With dose response, Evaluation Type: Evaluation B (Post-1980)) “active; positive”.

Turning to `CCN(CCCl)CCCNc1c2ccccc2nc2c1ccc1ccccc12`, the mutagenic call (Species/Cell Type: Chinese hamster ovary (CHO) cells, Assay Type: Forward gene mutation at the HPRT locus, Assay Code: CHO+D, Dose Response: With dose response, Evaluation Type: Evaluation A (Pre-1980)) is “active; positive”.

Consider `NC(=O)N(CCO)N=O`, for which the mutagenic call under setting [4] was “active; positive”.

As for `C/C=C(/C)C(=O)O[C@@H]1CCN2CC=C(COC(=O)[C@@](O)([C@H](C)O)C(C)(C)O)[C@H]12`, the mutagenic call under setting [11] was “active; positive”.
